Several values for one entry are separate records, joined by “and”; a condition that tells them apart may be missing. Equal entries are not always repeated.
Assays:
[1] = tested on: Atox1-WD4 interaction (eCALWY3 probe); assay: eCALWY3 FRET assay of Atox1-WD4 interaction; type: biochemical, human; details: for Fluorescence Intensity Ratio (Citrine/Cerulean): 100 μM compound added; for Recover %: 100 μM compound, recovery of FRET ratio towards eCALWY3 only
Method: FRET for the eCALWY3 was performed in 150 mM HEPES, 100 mM NaCl, 1 mM DTT and 10% glycerol (pH 7.1). Zn^2+ titration was done by mixing 0.9 mM of Zn^2+ from a slightly acidic stock solution of ZnCl2 with buffering systems consisting of 1 mM DHPTA. The effects of varying concentrations of the small molecules were evaluated. Fluorescence spectra and emission anisotropy were recorded on a Varian Cary Eclipse spectrometer.

[2] = tested on: human PIG1 cell and human dermal fibroblast cell; details: for viability of normal cells: 72 hours, highest concentration tested 10 μM
[3] = tested on: Lung cancer H1299 cell, Head and neck cancer 212LN cell, Breast cancer MB231 cell; assay: Cancer cell viability / proliferation; details: for cell death in cancer cells: H1299, 212LN, MB231, increasing doses
H1299 cells [4] = assay: 14C-lipid synthesis from 14C-glucose; type: cell-based
[5] = tested on: AMPK phosphorylation and ACC1 phosphorylation; assay: Western blot of AMPK and ACC1 phosphorylation; type: cell-based; details: for rescue of AMPK and ACC1 phosphorylation increased by compound 50: co-treatment with compound 50
cell proliferation = assay: Rescue of cell proliferation inhibition induced by compound 50; type: cell-based; details: co-treatment with compound 50
H1299 cells [6] = assay: ROS production (DCFH-DA); type: cell-based
Method: (§1) Cells were treated with DMSO and DC_AC50 for 12 h and ROS generation was detected with DCFH-DA. Cells were incubated with 10 μM of DCFH-DA for 30 min at 37° C., washed twice with PBS, and immediately analyzed by a FACScan flow cytometer. The antioxidant NAC was treated with 3 mM concentration.

K562 cells [7] = assay: ROS production (DCFH-DA); type: cell-based
Method: as §1

H1299 cancer cells [8] = assay: 8-OHdG levels by triple quadrupole mass spectrometry; type: cell-based
From the text: FIG. 20A illustrates 8-OHdG levels in H1299 cancer cells determined by triple quadrupole mass spectrometry analysis. […] .

K562 cancer cells [9] = assay: as above; type: cell-based
From the text: FIG. 20B illustrates 8-OHdG levels in K562 cancer cells determined by triple quadrupole mass spectrometry analysis. […] .

human CCS (hCCS) = molecular target: T1, human CCS (hCCS) (Homo sapiens, UniProt O14618); assay: Intrinsic fluorescence Kd measurement; type: binding; details: intrinsic tryptophan fluorescence
T1 construct: 6-His (cleaved yes); made in house; host or cells: E. coli BL21 (pET28a)
T1 sequence (O14618 1-274): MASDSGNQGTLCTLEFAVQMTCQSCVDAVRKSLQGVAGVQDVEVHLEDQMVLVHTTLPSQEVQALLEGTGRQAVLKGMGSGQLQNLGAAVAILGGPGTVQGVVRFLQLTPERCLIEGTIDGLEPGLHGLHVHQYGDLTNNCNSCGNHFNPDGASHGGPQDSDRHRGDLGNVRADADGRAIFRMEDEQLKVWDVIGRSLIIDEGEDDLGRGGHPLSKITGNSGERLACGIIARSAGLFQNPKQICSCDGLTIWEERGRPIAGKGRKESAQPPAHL
Method: Based on this similarity, the intrinsic fluorescence of tyrosine for Atox1 and WD4 and tryptophan for hCCS upon addition of small molecules was monitored.
The binding assay was performed in an […]. […] The Atox, WD4 domain and hCCS (1 μM) were performed in 50 mM HEPES, 200 mM NaCl, 1 mM DTT (pH 7.1). […] Following this fluorescence results, the Kds of the small molecules was calculated.

[10] = Method: An in vivo small molecule treatment experiment was performed to further test the efficacy of these compounds.
K562 cells [11] = assay: K562 xenograft; details: 100 mg/kg/day i.p. for 21 days vs vehicle control
H1299 cells [12] = assay: H1299 xenograft; details: 100 mg/kg/day i.p. for 21 days vs vehicle control
H1299 cells [13] = assay: Lactate production
[14] = tested on: SOD activity in H1299 cells; assay: SOD activity assay; details: 48 h treatment
[15] = tested on: SOD activity in K562 cells; assay: SOD activity assay; details: 48 h treatment
H1299 cells [16] = assay: Oxygen consumption rate; details: in the presence or absence of oligomycin
H1299 cancer cells [17] = assay: Cell cycle arrest assay
K562 cancer cells [18] = assay: Cell cycle arrest assay
H1299 cells [19] = assay: Glucose utilization assay
H1299 cells [20] = assay: Intracellular ATP measurement
K562 cells [21] = assay: Intracellular ATP measurement
H1299 cells [22] = assay: Apoptosis and caspase-3 activity
H1299 cells [23] = assay: 14C-RNA synthesis from 14C-glucose
[24] = tested on: cytochrome c oxidase (CCO) in H1299 cells; assay: Cytochrome c oxidase activity assay; details: compared to the control
[25] = tested on: cytochrome c oxidase (CCO) in K562 cells; assay: Cytochrome c oxidase activity assay; details: compared to the control
SOD1 and SOD2 = assay: Western blot of SOD1 and SOD2 levels; details: H1299 and K562 cells
HeLa cells = assay: Live cell copper(I) probe imaging of copper uptake; details: 50 μM, added 10 min after CuSO4 (150 μM)
tumor growth = details: TM-induced copper deficiency; cited from earlier work

## CCN1CCc2nc3sc(C(=O)Nc4ccccc4OC(F)(F)F)c(N)c3cc2C1 [Compound 2, 3-amino-6-ethyl-N-(2-(trifluoromethoxy)phenyl)-5,6,7,8-tetrahydro-thieno[2,3-b][1,6]naphthyridine-2-carboxamide]
[1]
  Fluorescence Intensity Ratio (Citrine/Cerulean): eCALWY3 only: 3.54 100 μM compound added: 3.05
  Recover %: 86%
[2]
  viability of normal cells: not harmful
[3]
  cell death in cancer cells: induce cell death

## Nc1c(C(=O)NCC(c2ccccc2)c2ccccc2)sc2nc(-c3ccncc3)cc(C(F)(F)F)c12 [Compound 30]
[1]
  Fluorescence Intensity Ratio (Citrine/Cerulean): eCALWY3 only: 2.27 100 μM compound added: 1.53
  Recover %: 67%
[2]
  viability of normal cells: not harmful
[3]
  cell death in cancer cells: induce cell death

## c1cc(-c2cnn3cc(-c4ccc(OCCN5CCCCC5)cc4)cnc23)ccn1 [compound C, reference compound]
H1299 cells [4]; co-treatment with compound 50
  rescue of lipid synthesis decreased by compound 50: recovered lipid synthesis
[5]
  rescue of AMPK and ACC1 phosphorylation increased by compound 50: almost completely reversed
Cell proliferation
  rescue of cell proliferation inhibited by compound 50: partially rescued

## CC(=O)N[C@@H](CS)C(=O)O [NAC, N-acetyl-L-cysteine, reference compound]
[5]
  rescue of AMPK and ACC1 phosphorylation increased by compound 50: could not be rescued
H1299 cells [6]; co-treatment with compound 50
  rescue of cellular ROS levels increased by compound 50: almost completely rescued
K562 cells [7]; co-treatment with compound 50
  rescue of cellular ROS levels increased by compound 50: almost completely rescued
H1299 cancer cells [8]; NAC 3 mM
  rescue of 8-OHdG levels increased by compound 50: rescued
K562 cancer cells [9]; NAC 3 mM
  rescue of 8-OHdG levels increased by compound 50: rescued
Cell proliferation
  rescue of cell proliferation inhibited by compound 50: partially rescued

## COc1ccc2cc3c(N)c(C(=O)Nc4ccc(C(C)=O)cc4)sc3nc2c1 [Compound 61, N-(4-acetylphenyl)-3-amino-7-methoxythieno[2,3-b]quinoline-2-carboxamide]
[1]
  Fluorescence Intensity Ratio (Citrine/Cerulean): eCALWY3 only: 3.68 100 μM compound added: 2.72
  Recover %: 74%
[2]
  viability of normal cells: not harmful
[3]
  cell death in cancer cells: induce cell death

## COc1cccc(-c2ccc3c(N)c(C(=O)Nc4cc(OC)ccc4Cl)sc3n2)c1 [Compound 49, 3-amino-N-(2-chloro-5-methoxyphenyl)-6-(3-methoxyphenyl)thieno[2,3-b]pyridine-2-carboxamide]
[1]
  Fluorescence Intensity Ratio (Citrine/Cerulean): eCALWY3 only: 2.24 100 μM compound added: 1.89
  Recover %: 84%
[2]
  viability of normal cells: not harmful
[3]
  cell death in cancer cells: induce cell death

## Cc1cc(NC(=O)c2sc3nc(-c4ccccc4)cc(C(F)(F)F)c3c2N)no1 [Compound 71, 3-amino-N-(5-methylisoxazol-3-yl)-6-phenyl-4-(trifluoromethyl)thieno[2,3-b]pyridine-2-carboxamide]
[1]
  Fluorescence Intensity Ratio (Citrine/Cerulean): eCALWY3 only: 2.25 100 μM compound added: 1.86
  Recover %: 83%
[2]
  viability of normal cells: toxic to normal cells

## Nc1c(C(=O)Nc2c(F)cc(F)cc2Br)sc2nc3c(cc12)CCC3 [Compound 50, 3-amino-N-(2-bromo-4,6-difluorophenyl)-6,7-dihydro-5H-cyclopenta[b]thieno[3,2-e]pyridine-2-carboxamide]
Human CCS (hCCS)
  Kd: 8 µM and ~8.1 µM
[10]; mouse, in vivo, 100 mg/kg/day
  GRAN: 1.58 ± 1.4 ×10^3/μL
  HCT: 30.85 ± 4.879%
  HGB: 7.45 ± 1.768 g/dL
  LYM: 4.74 ± 1.556 ×10^3/μL
  MCH: 13.6 ± 1.273 pg
  MCHC: 24 ± 1.98 g/dL
  MCV: 56.75 ± 0.919 fL
  MONO: 0.44 ± 0.17 ×10^3/μL
  PLT: 742 ± 684.5 ×10^3/μL
  RBC: 5.43 ± 0.778 ×10^6/μL
  RDWa: 21.5 ± 4.667%
  WBC: 6.89 ± 3.125 ×10^3/μL
[10]; nude mice, 100 mg/kg/day, mean
  MPV: 6.35 ± 0.495 fL
[10]; nude, mouse, in vivo, ip, 4 weeks
  well-tolerated dose: 100 mg/kg/day
H1299 cells [4]
  lipid synthesis: significant decreases
[5]; H1299 and K562 cells
  ACC1 phosphorylation: increased
  AMPK phosphorylation: increased
H1299 cells [6]; 10 μM
  cellular ROS level: increased cellular ROS level
K562 cells [7]; 10 μM
  cellular ROS level: increased cellular ROS level
H1299 cancer cells [8]
  8-OHdG levels: increased
K562 cancer cells [9]
  8-OHdG levels: increased
[2]
  effect on noncancerous cell lines: minimum effects
  viability of normal cells: not harmful
K562 cells [11]
  tumor growth and size: significantly decreased tumor growth and size
H1299 cells [12]
  tumor growth and size: significantly decreased tumor growth and size
H1299 cells [13]
  cellular level of lactate: no noticeable changes
[14]
  SOD activity: noticeably decreased
[15]
  SOD activity: noticeably decreased
H1299 cells [16]
  oxygen consumption rate: significantly decreased
H1299 cancer cells [17]
  cell cycle: G2/M phase cell cycle arrest
K562 cancer cells [18]
  cell cycle: G2/M phase cell cycle arrest
H1299 cells [19]
  glucose uptake: no noticeable changes
H1299 cells [20]
  cellular ATP levels: significantly reduced
K562 cells [21]
  cellular ATP levels: significantly reduced
H1299 cells [22]
  apoptosis: didn't noticeably induce apoptosis
  caspase-3 activity: does not noticeably affect
H1299 cells [23]
  glucose-dependent RNA synthesis: no noticeable changes
[24]
  CCO activity: significantly lowered
[25]
  CCO activity: significantly lowered
SOD1 and SOD2
  SOD2 expression level: Reduced expression
[3]
  cell death in cancer cells: induce cell death
[3]; dose-dependent
  cancer cell proliferation: high efficiency in inhibiting cancer cell proliferation
HeLa cells
  copper uptake: reduced copper uptake

## [SH-].[SH-].[S]=[Mo]=[S] [TM, tetrathiomolybdate]
Tumor growth
  tumor growth: significantly inhibited tumor growth

Reference: patent US20160074373A1, “METHODS AND COMPOSITIONS FOR INHIBITING HUMAN COPPER TRAFFICKING PROTEINS ATOX1 AND CCS” (SHANGHAI INSTITUTE OF MATERIA MEDICA, CHINESE ACADEMY OF …, priority 2013, published 2016)
